From patent US11919855B2, “Substituted pyrrolidones and piperidones as small molecule inhibitors of EZH2 and EED protein binding” (Northwestern University, priority 2021, dated 2024)

molecular target: EED-EZH2 (Homo sapiens (Human), UniProt O75530); test: EED-EZH2 AlphaScreen assay; format: binding; conditions: 8.7 nM EZH2, 5.0 nM EED, read-out: IC50 Potency Code
Method: Biological activity of exemplary substituted pyrrolidones and piperidones was determined by the EED-EZH2 AlphaScreen assay according the following methodology.
EZH2 (non-complexed), His-GST-tags
Anti-FLAG AlphaLISA Acceptor Beads
AlphaScreen GSH Donor Beads
Assay Protocol (Calculated for 384 Wells or 1 Plate)
• 1. Thaw EED and EZH2 proteins on ice. • 2. Prepare 1× HMT Buffer 2: • 1.5 mL of 4× HMT Buffer 2+4.5 mL ddH2O. • 3. Prepare 1.2× EED-EZH2 solution in 1× HMT Buffer 2: 3.4 mL total • 2.1 uL of EED (0.41 mg/mL, 8.04 uM, 1:1608 dilution)+14 uL of EZH2 (0.24 mg/mL, 2.11 uM, 1:243 dilution)+3.384 mL of 1× HMT Buffer 2 • 4. Prepare 1.2× EZH2 solution in 1× HMT Buffer 2 (positive control): 0.168 mL total • 0.69 uL of EZH2 (0.24 mg/mL, 2.11 uM, 1:243 dilution)+167 uL of 1× HMT Buffer 2 • 5. Add 10 μL of 1.2× EED-EZH2 or 1.2× EZH2 solution to each well. • 6. Add compounds in DMSO via Echo transfer and 30 nL DMSO for control wells. • 7. Centrifuge at 15,000 rpm for 10 seconds and allow to incubate at rt for 1 hour. Step Two • 1. Prepare 6× Anti-FLAG and GSH Donor beads in 1× HMT Buffer 2 in the dark: 1 mL total • 10 uL of Anti-FLAG (1:100 dilution)+5 uL of GSH Donor (1:200 dilution)+985 uL of 1× HMT Buffer 2 • 2. Add 2 μL of bead solution to each well. • 3. Centrifuge at 15,000 rpm for 10 seconds and allow to incubate at rt for 1 hour in the dark. • 4. Read plate. Final Concentrations: • 12 μL volume per well • 8.7 nM EZH2 • 5.0 nM EED • DMSO<0.5% Calculations: • 1. Average EZH2 only wells (positive control) and subtract from all other wells. • 2. Average EED-EZH2 only wells (negative control) to indicate 100% signal or 0% inhibition. • 3. Normalize each well to the average 100% signal from step 2. • 4. Report either as normalized % inhibition or normalized % signal. • Use GraphPad to Calculate IC50.

EED-EZH2, sequence (O75530 2-441): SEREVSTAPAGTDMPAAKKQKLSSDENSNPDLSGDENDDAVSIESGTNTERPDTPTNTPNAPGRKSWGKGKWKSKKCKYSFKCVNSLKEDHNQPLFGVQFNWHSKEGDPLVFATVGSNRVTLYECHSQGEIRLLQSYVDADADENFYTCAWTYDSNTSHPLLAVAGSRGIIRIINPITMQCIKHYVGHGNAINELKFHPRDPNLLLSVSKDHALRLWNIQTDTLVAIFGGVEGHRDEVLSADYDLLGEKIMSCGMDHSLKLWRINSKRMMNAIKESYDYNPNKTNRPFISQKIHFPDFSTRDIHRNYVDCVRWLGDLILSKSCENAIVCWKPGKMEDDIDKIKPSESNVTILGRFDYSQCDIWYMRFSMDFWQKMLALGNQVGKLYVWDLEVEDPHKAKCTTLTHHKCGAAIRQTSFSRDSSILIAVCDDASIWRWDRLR

| SMILES | IC50 [µM] |
| --- | --- |
| Cc1ccc(N)c(C(=O)NC2CC(=O)N(Cc3ccccc3C(F)(F)F)C2)c1 (stereo not shown) [NUCC-0202793] | > 50 |
| O=C(NC1CCN(Cc2ccccc2C(F)(F)F)C1=O)c1cccc(C(F)(F)F)c1O (stereo not shown) [NUCC-0223823] | > 50 |
| O=C(NC1CCC(=O)N(Cc2ccccc2C(F)(F)F)C1)c1cc(C(F)(F)F)ccc1O (stereo not shown) [NUCC-0223818] | 1 to 10 |
| O=C(NCC1CC(=O)N(Cc2cccc(C(F)(F)F)c2)C1)c1cc(C(F)(F)F)ccc1O (stereo not shown) [NUCC-0226233] | < 1 |
| Nc1ccc(F)cc1C(=O)NC1CC(=O)N(Cc2ccccc2C(F)(F)F)C1 (stereo not shown) [NUCC-0223634] | > 50 |
| O=C(NC1CC(=O)N(Cc2ccccc2C(F)(F)F)C1)c1ccccc1O (stereo not shown) [NUCC-0202669] | > 50 |
| O=C(O)c1ccccc1C(=O)NC1CC(=O)N(Cc2ccccc2[N+](=O)[O-])C1 (stereo not shown) [NUCC-0202658] | > 50 |
| O=C(N[C@@H]1CCN(Cc2cccc(C(F)(F)F)c2)C1=O)c1cc(C(F)(F)F)ccc1O [NUCC-0226245] | 1 to 10 |
| Cn1nccc1C(=O)NC1CC(=O)N(Cc2ccccc2C(F)(F)F)C1 (stereo not shown) [NUCC-0202764] | > 50 |
| Cc1ccc(O)c(C(=O)NC2CCC(=O)N(Cc3ccccc3C(F)(F)F)C2)c1 (stereo not shown) [NUCC-0202971] | 1 to 10 |
| CC(C)(CO)C(=O)NC1CC(=O)N(Cc2ccccc2C(F)(F)F)C1 (stereo not shown) [NUCC-0202851] | > 50 |
| O=C(NC1CC(=O)N(Cc2ccccc2C(F)(F)F)C1)c1cscn1 (stereo not shown) [NUCC-0202759] | > 50 |
| CC(C)(C)c1ccc(O)c(C(=O)NC2CC(=O)N(Cc3ccccc3C(F)(F)F)C2)c1 (stereo not shown) [NUCC-0202752] | > 50 |
| Cc1cccc(O)c1C(=O)NC1CC(=O)N(Cc2ccccc2C(F)(F)F)C1 (stereo not shown) [NUCC-0202827] | > 50 |
| COC(=O)c1ccccc1CN1CC(NC(=O)c2cc(C(F)(F)F)ccc2O)CCC1=O (stereo not shown) [NUCC-0226237] | 1 to 10 |
| O=C(NC1CC(=O)N(Cc2ccc(Cl)c(Cl)c2)C1)c1cccc(-c2ccccc2)c1 (stereo not shown) [NUCC-0202677] | > 50 |
| O=C(NC1CC(=O)N(Cc2ccccc2C(F)(F)F)C1)c1cc(C(F)(F)F)ccc1O (stereo not shown) [NUCC-0202965] | 1 to 10 |
| O=C(NC1CCN(Cc2cccc(C(F)(F)F)c2)C1=O)c1cc(C(F)(F)F)ccc1O (stereo not shown) [NUCC-0226232] | 1 to 10 |
| Cc1ccc(O)cc1C(=O)NC1CC(=O)N(Cc2ccccc2C(F)(F)F)C1 (stereo not shown) [NUCC-0202754] | > 50 |
| O=C(NC[C@@H]1CC(=O)N(Cc2cccc(C(F)(F)F)c2)C1)c1cc(C(F)(F)F)ccc1O [NUCC-0226244] | < 1 |
| Cc1cccc(C(=O)NC2CC(=O)N(Cc3ccccc3C(F)(F)F)C2)c1O (stereo not shown) [NUCC-0202751] | > 50 |
| Cc1c(C(=O)NC2CC(=O)N(Cc3ccccc3C(F)(F)F)C2)cccc1[N+](=O)[O-] (stereo not shown) [NUCC-0202662] | > 50 |
| CC1(C)C(=O)N(Cc2ccccc2C(F)(F)F)CC1NC(=O)c1cc(C(F)(F)F)ccc1O (stereo not shown) [NUCC-0223629] | 10 to 50 |

| SMILES | IC50 [µM] |
| --- | --- |
| Cc1ccc(O)c(C(=O)NC2CC(=O)N(Cc3ccccc3C(F)(F)F)C2)c1 (stereo not shown) [NUCC-0163358] | 1 to 10 |
| CC(=O)N1CCCC(CN2CC(NC(=O)c3cc(C)ccc3O)CC2=O)C1 (stereo not shown) [NUCC-0202970] | 10 to 50 |
| O=C(NC1CCN(Cc2ccccc2C(F)(F)F)C1=O)c1ccc(C(F)(F)F)cc1O (stereo not shown) [NUCC-0223822] | > 50 |
| O=C(NC1CCN(Cc2ccccc2C(F)(F)F)C1=O)c1cc(C(F)(F)F)ccc1O (stereo not shown) [NUCC-0223821] | < 1 |
| COc1ccc(C)cc1C(=O)NC1CC(=O)N(Cc2ccc(Cl)c(Cl)c2)C1 (stereo not shown) [NUCC-0202673] | > 50 |
| CCc1ccc(O)c(C(=O)NC2CC(=O)N(Cc3ccccc3C(F)(F)F)C2)c1 (stereo not shown) [NUCC-0202753] | > 50 |
| O=C(NC1CC(=O)N(Cc2ccccc2C(F)(F)F)C1)c1cc(Cl)nc2ccccc12 (stereo not shown) [NUCC-0202792] | > 50 |
| Cc1ccc(O)c(C(=O)N[C@H]2CC(=O)N(C3C=Cc4ccccc43)C2)c1 (stereo partly shown) [NUCC-0202979] | 10 to 50 |
| Cc1ccc(O)c(C(=O)NC2CC(=O)N(Cc3ccccc3C(F)(F)F)C2)n1 (stereo not shown) [NUCC-0202968] | > 50 |
| Nc1ccc(C(F)(F)F)cc1C(=O)NC1CC(=O)N(Cc2ccccc2C(F)(F)F)C1 (stereo not shown) [NUCC-0223633] | > 50 |
| CC1(C)C(=O)N(Cc2cccc(C(F)(F)F)c2)CC1NC(=O)c1cc(C(F)(F)F)ccc1O (stereo not shown) [NUCC-0226236] | < 1 |
| O=C1CC(Nc2n[nH]c3ccccc23)CN1Cc1ccccc1C(F)(F)F (stereo not shown) [NUCC-0202766] | > 50 |
| O=C(N[C@H]1CC(=O)N(Cc2cccc(C(F)(F)F)c2)C1)c1cc(C(F)(F)F)ccc1O [NUCC-0226234] | 1 to 10 |
| O=C(NC1CC(=O)N(Cc2ccccc2[N+](=O)[O-])C1)c1cccnc1 (stereo not shown) [NUCC-0202657] | > 50 |
| COc1ccc(C)cc1C(=O)NC1CC(=O)N(Cc2ccccc2C(F)(F)F)C1 (stereo not shown) [NUCC-0202660] | 10 to 50 |
| O=C(N[C@@H]1CC(=O)N(Cc2ccccc2C(F)(F)F)C1)c1cc(C(F)(F)F)ccc1O [NUCC-0223628] | < 1 |
| O=C(NC1CC(=O)N(Cc2ccccc2C(F)(F)F)C1)c1cccc2cc[nH]c12 (stereo not shown) [NUCC-0202749, N-(5-oxo-1-(2-(trifluoromethyl)benzyl)pyrrolidin-3-yl)-1H-indole-7-carboxamide] | > 50 |
| O=C(N[C@H]1CC(=O)N(Cc2ccccc2C(F)(F)F)C1)c1cc(C(F)(F)F)ccc1O [NUCC-0223624] | < 1 |
| N#Cc1cccc(C(=O)NC2CC(=O)N(Cc3ccccc3[N+](=O)[O-])C2)c1 (stereo not shown) [NUCC-0202659] | > 50 |
| O=C(NC1CC(=O)N(Cc2ccccc2C(F)(F)F)C1)c1cc(Br)ccc1O (stereo not shown) [NUCC-0202834] | 1 to 10 |
| O=C(NC1CC(=O)N(Cc2ccccc2C(F)(F)F)C1)c1ccc(Br)c(O)c1 (stereo not shown) [NUCC-0202765] | > 50 |
| COc1ccc(CN2C[C@@H](NC(=O)c3cc(C)ccc3O)CC2=O)c(OC)c1 [NUCC-0202972] | 10 to 50 |
| O=C(NCC1CC(=O)N(Cc2ccccc2C(F)(F)F)C1)c1cc(C(F)(F)F)ccc1O (stereo not shown) [NUCC-0223627] | < 1 |

| SMILES | IC50 [µM] |
| --- | --- |
| O=C(NC1CC(=O)N(Cc2ccccc2C(F)(F)F)C1)c1ccc2ccccc2c1O (stereo not shown) [NUCC-0202761] | 10 to 50 |
| COc1ccc(C)cc1C(=O)NC1CC(=O)N(Cc2ccccc2[N+](=O)[O-])C1 (stereo not shown) [NUCC-0202654] | > 50 |
| Nc1ccc(Cl)cc1C(=O)NC1CC(=O)N(Cc2ccccc2C(F)(F)F)C1 (stereo not shown) [NUCC-0223635] | > 50 |
| O=C(NC1CC(=O)N(Cc2ccccc2C(F)(F)F)C1)c1ccc(Cl)nc1Cl (stereo not shown) [NUCC-0202762] | > 50 |
| COc1cccc(CC(=O)NC2CC(=O)N(Cc3ccccc3[N+](=O)[O-])C2)c1 (stereo not shown) [NUCC-0202655] | > 50 |
| O=C(NC1CC(=O)N(Cc2ccccc2C(F)(F)F)C1)c1cc(F)ccc1O (stereo not shown) [NUCC-0202832] | 1 to 10 |
| O=C(N[C@@H]1CC(=O)N(Cc2cccc(C(F)(F)F)c2)C1)c1cc(C(F)(F)F)ccc1O [NUCC-0226235] | 1 to 10 |
| Cc1ccc(O)c(C(=O)NC2CC(=O)N(Cc3ccccc3[N+](=O)[O-])C2)c1 (stereo not shown) [NUCC-0202653] | 1 to 10 |
| Cc1ccc(O)c(C(=O)N[C@@H]2CC(=O)N(Cc3ccc(Cl)c(Cl)c3)C2)c1 [NUCC-0202977] | 10 to 50 |
| Cc1ccc(O)c(C(=O)N[C@H]2CC(=O)N(C3CCc4ccccc43)C2)c1 (stereo partly shown) [NUCC-0202976] | > 50 |
| O=C(NC1CC(=O)N(Cc2ccc(Cl)c(Cl)c2)C1)c1cccnc1 (stereo not shown) [NUCC-0202675] | > 50 |
| O=C(NC[C@H]1CCC(=O)N1Cc1cccc(C(F)(F)F)c1)c1cc(C(F)(F)F)ccc1O [NUCC-0226242] | 1 to 10 |
| O=C(NC1CCN(Cc2ccccc2C(F)(F)F)C1=O)c1cc(Cl)ccc1O (stereo not shown) [NUCC-0223824] | > 50 |
| O=C(NC1CC(=O)N(Cc2ccccc2C(F)(F)F)C1)c1cc2ccccc2cc1O (stereo not shown) [NUCC-0202830] | 10 to 50 |
| Cc1ccc(O)c(C(=O)N[C@H]2CC(=O)N(Cc3ccccc3Cl)C2)c1 [NUCC-0202973] | 10 to 50 |
| Cc1c[nH]c(=O)c(C(=O)NC2CC(=O)N(Cc3ccccc3C(F)(F)F)C2)c1 (stereo not shown) [NUCC-0202828] | > 50 |
| COc1cccc(CC(=O)NC2CC(=O)N(Cc3ccccc3C(F)(F)F)C2)c1 (stereo not shown) [NUCC-0202661] | > 50 |
| O=C(Cc1cc2ccccc2[nH]1)NC1CC(=O)N(Cc2ccccc2C(F)(F)F)C1 (stereo not shown) [NUCC-0202756] | > 50 |
| O=C(NC1CC(=O)N(Cc2ccccc2C(F)(F)F)C1)c1cccnc1 (stereo not shown) [NUCC-0202663] | > 50 |
| Cc1ccc(O)c(C(=O)N[C@H]2CC(=O)N(Cc3ccc(C(F)(F)F)cc3)C2)c1 [NUCC-0202974] | > 50 |
| O=C(NC1CCC(=O)N(Cc2ccccc2C(F)(F)F)C1)c1ccc(C(F)(F)F)cc1O (stereo not shown) [NUCC-0223820] | > 50 |
